Measured values published in patent publication US20120148677A1, “CONTROLLED RELEASE PARTICLES CONTAINING ACID FIBROBLAST GROWTH FACTOR” (Taipei Veterans General Hospital, priority 2010, published 2012).

Experiments:
[1] = tested on: PC-12 cells; test: 6-OHDA neurotoxicity in PC-12 cells, MTT cell viability assay; type: cell-based
Protocol: The neurotoxicity was test by PC-12 cells which were rat pheochromocytoma cell line. The cells were supplied by the Bioresource Collection and Research Center, Food Industry Research and Development Institute, Hsinchu, Taiwan, and maintained in RPMI 1640 supplemented with 10% HBS, 5% FBS, 1% penicillin/streptomycin (Gibco) at 37° C. in a humidified atmosphere containing 5% CO2 and the culture medium was changed every 2 days.
6-hydroxydopamin (6-OHDA) is a neurotoxin, which leads to apoptosis of catecholaminergic cells. This pharmacological mechanism can be used to test neuron protecting efficiency of aimed drugs. The cells were seeded in 96 well plates at a density of 4×10^4 cells/well, which were pre-coated with collagen. Following 24 hrs of starvation, the medium was changed into 5% serum. The experimental groups were given different treatments and added with 6-OHDA (sigma) until reaching the concentration of 100 uM. The medium without 6-OHDA works as control. The relative number of viable cells was monitored by MTT assay.
MTT (3-(4,5-Dimethylthiazol-2-yl)-2,5-diphenyltetrazolium bromide) was a tetrazolium salt that can be reduced to purple-colored formazan by normal cell. The stock solution of MTT (5 mg/ml) was added into each well to make the medium of 0.5 mg/ml MTT and cells were incubated for 4 h. The supernatant was removed to obtain the MTT metabolic product, formazan, which was then dissolved in 120 ul DMSO (dimethylsulfoxide, sigma) and placed on a shaking table for 5 min until thoroughly dissolved. 100 ul of dissolved-formazan from each well was transferred into another plate to measure the absorbance with 560 nm at background 670 nm.
The dosage used was 100 uM, which caused about 40% apoptosis. […] The empty particles (without aFGF) and the particles entrapping an aFGF were soaked in culture medium for 2 days at 4° C. The supernatant was then collected and diluted at different concentrations for treatment of the 6-OHDA-damaged PC-12 cells.

[2] = molecular target: T1, trypsin (Bos taurus, UniProt P00760); test: Proteolytic sensitivity to trypsin digestion, Western blot; type: in vitro ADME; details: after 5 min of digestion, aFGF:trypsin 1:400, PBS, 37° C.
T1 construct: purchased Sigma T1426
T1 sequence (P00760 24-246): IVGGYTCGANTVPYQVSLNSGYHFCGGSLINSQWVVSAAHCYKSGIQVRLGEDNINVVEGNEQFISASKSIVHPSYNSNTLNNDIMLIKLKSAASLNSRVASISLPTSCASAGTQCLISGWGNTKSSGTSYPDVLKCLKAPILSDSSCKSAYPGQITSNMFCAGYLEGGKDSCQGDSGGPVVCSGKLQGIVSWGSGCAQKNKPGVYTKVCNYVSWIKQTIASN
Protocol: In order to test how well of the particles can protect aFGF from an enzyme digestion, we mixed aFGF or the particles entrapping aFGF with a protein enzyme, trypsin. The aFGF and trypsin (Sigma, T1426) was mixed with the ratio of 1:400 in PBS bathed at 37° C. Ten microliters of product was taken out at various time intervals to mix with 10 ul of 2×SDS-sample buffer. The solution was then immediately being boiled for 5 mins to cease enzyme reaction.
As shown in the results, the binding of aFGF to heparin increased the stability to overcome the challenge in vivo. To simulate physiological environment, the experiment was held at 37° C. The intact aFGF and aFGF in the particles of the invention were digested by Trypsin respectively, and aFGF antibody was used to detect the remaining aFGF. With the increase in time of enzyme digestion, the amount of aFGF decreases.

| Compound | apoptosis ([1]; 100 uM 6-OHDA, PC-12 cells) | EC50 ([1]; Rattus norvegicus, PC-12, read-out: ED50 (neurotoxicity)) | remaining aFGF band after trypsin digestion [2] | survival rate ([1]; 10 pg/ml aFGF, 100 uM 6-OHDA, PC-12 cells) | survival rate ([1]; 10 ng/ml aFGF, 100 uM 6-OHDA, PC-12 cells) | effect on PC-12 death ([1]; 6-OHDA-treated PC-12 cells, FIG. 5) |
| --- | --- | --- | --- | --- | --- | --- |
| NCCc1cc(O)c(O)cc1O [6-OHDA, 6-hydroxydopamin, reference compound] | about 40% | ~125 µM |  |  |  |  |
| acid fibroblast growth factor [aFGF] |  |  | almost disappeared | more than 72.63% | 88.41% | significantly blocks PC-12 death |
